Reference: patent US7102027B2, “Adamantanetricarboxylic acid derivatives” (Daicel Chemical Industries, Ltd., priority 2003, dated 2006)
Read-outs that look alike come from different tables or passages of the source.

Assay: Dissolution of monomer components in mesitylene to prepare a coating liquid
Format: physicochemical
Protocol: In 100 g of mesitylene were dissolved 2.48 g (8 mmol) of trimethyl ester of 1,3,5-adamantanetricarboxylic acid prepared in Example 1 and 6.42 g (12 mmol) of 3,3′-diaminobenzidinetetracyclohexanoimine [N,N′,N″,N′″-tetracyclohexylidene-3,4,3′,4′-biphenyltetramine] prepared in Preparation Example 1 at room temperature in a nitrogen atmosphere, to yield a coating liquid having a monomer concentration of 8.2% by weight. After filtrating through a filter with a pore size of 0.1 μm, the coating liquid was applied to an 8-inch silicon wafer by spin coating. This was heated at 300° C. in a nitrogen atmosphere for 30 minutes and was then heated at 400° C. for further 30 minutes, to form a film. The infrared absorption spectrum of the resulting polymer film was determined. The result is shown in FIG. 1, verifying that the target crosslinked polybenzazole film was formed.
A coating liquid was prepared by the procedure of Example • 7, except using equal amounts of • 1,3,5-adamantanetricarboxylic acid and • 3,3′-diaminobenzidine instead of trimethyl ester of • 1,3,5-adamantanetricarboxylic acid and • N,N′,N″,N′″-tetracyclohexylidene-3,4,3′,4′-biphenyltetramine, respectively. […] The infrared absorption spectrum of the resulting polymer film was determined, verifying that the target crosslinked polybenzazole film was formed.

Row | SMILES | solubility in the solvent (mesitylene) | solubility in the solvent (mesitylene) (procedure of Example 7: 8 mmol acid and 12 mmol amine together in 100 g mesitylene, room temperature, nitrogen atmosphere)
1 | O=C(O)C12CC3CC(C(=O)O)(C1)CC(C(=O)O)(C3)C2 [1,3,5-adamantanetricarboxylic acid] | not sufficiently dissolved | –
2 | Nc1ccc(-c2ccc(N)c(N)c2)cc1N [3,3′-diaminobenzidine] | – | not sufficiently dissolved
